The record followed here is patent US8551717B2, “Method for determining sumoylation” (Medizinische Hochschule Hannover, priority 2008, dated 2013).

One assay relates to p53-FRB and p53-FKBP. As to the kind of experiment: USDDS: AP21967-induced in vivo SUMOylation of p53 fusion proteins, western blot. The note with it: HEK293. The class given is cell-based, human. An excerpt: (§1) To identify new SUMOylation substrates and to study the function of SUMOylation the Ubc9/substrate dimerisation-dependent SUMOylation system (USDDS) was developed which consists of fusions of the SUMOylation substrate and of the SUMO-conjugating enzyme Ubc9 to the chemically activatable heterodimerisation domains FKBP and FRB, respectively, as shown in FIG. 2. When the substrate protein fused to FKBP is coexpressed with Ubc9-FRB, treatment of HEK293 cells with the rapamycin-related dimerizer AP21967 induces SUMOylation of the substrate protein fused to FKBP at its specific SUMOylation site. […] Dependent on an EcoRl site in the coding sequence, seven C-terminal amino acids of the human STAT1a in the STAT1-FKBP/FRB fusion proteins are missing. For the SUMOylation analysis HEK293 (human embryonic kidney cells) cells have been used. HEK293 cells were cultured in Dulbecco's modified Eagle's medium with high glucose, complemented with 10% fetal calf serum, 2 mM L-glutamine, 100 U/ml penicillin and […] streptomycin. We performed transfection of HEK293 cells using the polyethylenimine transfection reagent. HEK293 cells of a fresh confluent 10 cm plate were transferred on a 12-well plate. […]
(§2) When p53-FRB or STAT1-FRB were coexpressed with Ubc9-FKBP together with EGFP-SUMO1, no significant EGFP-SUMO1 conjugation of STAT1-FRB and of p53-FRB could be detected (FIG. 3A,B). […]

The target of the next assay is T1, STAT1-FRB and STAT1-FKBP (Homo sapiens, UniProt P42224+P42345+P62942).
T1 construct: seven C-terminal amino acids of the human STAT1a in the STAT1-FKBP/FRB fusion proteins are missing; FKBP domain (in STAT1-FKBP); expressed in transfected cells; host or cells: HEK293
T1 sequence (P42224 1-743 limits assumed): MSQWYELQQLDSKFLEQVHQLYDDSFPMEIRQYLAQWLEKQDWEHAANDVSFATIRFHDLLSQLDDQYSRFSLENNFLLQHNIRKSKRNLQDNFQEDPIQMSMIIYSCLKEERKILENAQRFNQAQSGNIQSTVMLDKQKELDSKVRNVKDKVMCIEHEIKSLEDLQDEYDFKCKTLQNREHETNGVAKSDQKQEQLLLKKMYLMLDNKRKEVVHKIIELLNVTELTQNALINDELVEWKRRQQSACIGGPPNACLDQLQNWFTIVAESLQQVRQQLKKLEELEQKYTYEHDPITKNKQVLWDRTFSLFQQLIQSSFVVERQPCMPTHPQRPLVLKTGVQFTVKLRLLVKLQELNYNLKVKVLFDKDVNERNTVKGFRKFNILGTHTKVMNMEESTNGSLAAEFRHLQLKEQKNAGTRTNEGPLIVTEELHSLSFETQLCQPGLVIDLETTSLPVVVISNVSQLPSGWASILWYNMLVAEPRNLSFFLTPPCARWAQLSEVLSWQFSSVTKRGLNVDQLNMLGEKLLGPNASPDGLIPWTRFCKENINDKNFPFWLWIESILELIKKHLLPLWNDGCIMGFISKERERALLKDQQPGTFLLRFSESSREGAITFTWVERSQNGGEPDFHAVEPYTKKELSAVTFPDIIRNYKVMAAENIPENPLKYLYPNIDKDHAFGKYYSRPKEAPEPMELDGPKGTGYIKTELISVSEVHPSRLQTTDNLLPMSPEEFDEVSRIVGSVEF
T1 sequence (P63279 whole entry partner, the tested form may be a part): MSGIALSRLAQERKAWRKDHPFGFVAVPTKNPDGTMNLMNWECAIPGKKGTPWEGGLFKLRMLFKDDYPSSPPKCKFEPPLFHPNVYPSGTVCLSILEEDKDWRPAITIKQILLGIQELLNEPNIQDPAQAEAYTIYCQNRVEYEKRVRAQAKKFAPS
T1 sequence (P62942 2-108 limits assumed): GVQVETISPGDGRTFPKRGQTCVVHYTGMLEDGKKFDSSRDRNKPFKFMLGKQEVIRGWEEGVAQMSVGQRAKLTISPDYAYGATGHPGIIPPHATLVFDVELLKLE
T1 sequence (P42345 2021-2113 limits assumed): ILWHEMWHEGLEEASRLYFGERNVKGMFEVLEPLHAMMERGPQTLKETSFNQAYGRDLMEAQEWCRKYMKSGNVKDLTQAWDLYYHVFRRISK
Put plainly: USDDS: AP21967-induced in vivo SUMOylation of STAT1 fusion proteins, western blot. It is filed as cell-based. The following applies: HEK293.
Text: as §1, §2

Another assay has as its target T2, CDK4-U (Homo sapiens, UniProt P11802+P63279).
T2 construct: expressed in transfected cells; host or cells: HEK293
As to the kind of experiment: Trans-SUMOylation by CDK4-U. On the set-up: key: (++), strong TransSUMOylation; (+), TransSUMOylation; (+/−) weak TransSUMOylation; (−) no detectable TransSUMOylation. The class given is cell-based. The following applies: protein 2 construct coexpressed with CDK4-U and EGFP-SUMO1 in HEK293; western blot; Table 1.
Text: as §1, with “streptomycin.” for “streptomycin. We performed transfection of HEK293 cells using the polyethylenimine transfection reagent. HEK293 cells of a fresh confluent 10 cm plate were transferred on a 12-well plate.”
(§3) As shown above, the SUMOylation of a protein of interest can be induced by the heterodimerisation with a binding protein fused to Ubc9. […] Therefore the protein pairs were coexpressed with EGFP-SUMO1 in HEK293 cells and after 24h the transfectants were lysed and the protein extracts were analyzed in western blots. […]

Another assay deals with T3, U-CDC37 (Homo sapiens, UniProt P63279+Q16543).
T3 construct: expressed in transfected cells; host or cells: HEK293
T3 sequence (P63279+Q16543 fused): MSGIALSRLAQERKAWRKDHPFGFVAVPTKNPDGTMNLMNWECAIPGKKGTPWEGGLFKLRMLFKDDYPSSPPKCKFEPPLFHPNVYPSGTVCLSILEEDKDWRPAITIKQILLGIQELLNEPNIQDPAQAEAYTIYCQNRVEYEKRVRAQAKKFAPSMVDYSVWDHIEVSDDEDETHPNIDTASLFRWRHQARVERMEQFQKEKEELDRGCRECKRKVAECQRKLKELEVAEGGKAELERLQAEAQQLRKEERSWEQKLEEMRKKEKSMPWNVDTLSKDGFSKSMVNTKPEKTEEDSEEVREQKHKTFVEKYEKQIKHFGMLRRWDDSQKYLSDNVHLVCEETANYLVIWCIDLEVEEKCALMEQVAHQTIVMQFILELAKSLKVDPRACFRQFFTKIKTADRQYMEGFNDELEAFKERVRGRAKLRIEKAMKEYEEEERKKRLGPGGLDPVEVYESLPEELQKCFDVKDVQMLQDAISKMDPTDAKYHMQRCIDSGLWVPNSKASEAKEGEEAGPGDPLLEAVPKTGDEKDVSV
Put plainly: Trans-SUMOylation by U-CDC37. The class given is cell-based. Also on record: key: (++), strong TransSUMOylation; (+), TransSUMOylation; (+/−) weak TransSUMOylation; (−) no detectable TransSUMOylation. The following applies: protein 2 construct coexpressed with U-CDC37 and EGFP-SUMO1 in HEK293; western blot; Table 2.
Text: as §1, with “streptomycin.” for “streptomycin. We performed transfection of HEK293 cells using the polyethylenimine transfection reagent. HEK293 cells of a fresh confluent 10 cm plate were transferred on a 12-well plate.”
as §3

The next assay deals with T4, CRSP9-U (Homo sapiens, UniProt O43513+P63279).
T4 construct: Ubc9 (fusion partner); expressed in transfected cells; host or cells: HEK293
T4 sequence (O43513+P63279 fused): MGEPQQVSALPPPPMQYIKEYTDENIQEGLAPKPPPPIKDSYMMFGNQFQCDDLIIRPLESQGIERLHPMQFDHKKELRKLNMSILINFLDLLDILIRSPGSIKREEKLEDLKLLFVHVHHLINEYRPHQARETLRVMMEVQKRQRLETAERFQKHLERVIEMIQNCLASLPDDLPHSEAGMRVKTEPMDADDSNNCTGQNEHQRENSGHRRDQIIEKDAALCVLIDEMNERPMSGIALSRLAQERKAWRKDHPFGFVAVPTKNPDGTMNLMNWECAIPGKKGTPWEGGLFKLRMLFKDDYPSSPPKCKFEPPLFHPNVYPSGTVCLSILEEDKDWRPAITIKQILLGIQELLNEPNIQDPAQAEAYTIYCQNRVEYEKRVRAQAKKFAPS
Put plainly: Trans-SUMOylation by CRSP9-U. Also on record: key: (++), strong TransSUMOylation; (+), TransSUMOylation; (+/−) weak TransSUMOylation; (−) no detectable TransSUMOylation. The following applies: protein 2 construct coexpressed with CRSP9-U and EGFP-SUMO1 in HEK293; western blot; Table 2. It is filed as cell-based.
Text: as §1, with “streptomycin.” for “streptomycin. We performed transfection of HEK293 cells using the polyethylenimine transfection reagent. HEK293 cells of a fresh confluent 10 cm plate were transferred on a 12-well plate.”
as §3

T2 sequence (P11802+P63279 fused): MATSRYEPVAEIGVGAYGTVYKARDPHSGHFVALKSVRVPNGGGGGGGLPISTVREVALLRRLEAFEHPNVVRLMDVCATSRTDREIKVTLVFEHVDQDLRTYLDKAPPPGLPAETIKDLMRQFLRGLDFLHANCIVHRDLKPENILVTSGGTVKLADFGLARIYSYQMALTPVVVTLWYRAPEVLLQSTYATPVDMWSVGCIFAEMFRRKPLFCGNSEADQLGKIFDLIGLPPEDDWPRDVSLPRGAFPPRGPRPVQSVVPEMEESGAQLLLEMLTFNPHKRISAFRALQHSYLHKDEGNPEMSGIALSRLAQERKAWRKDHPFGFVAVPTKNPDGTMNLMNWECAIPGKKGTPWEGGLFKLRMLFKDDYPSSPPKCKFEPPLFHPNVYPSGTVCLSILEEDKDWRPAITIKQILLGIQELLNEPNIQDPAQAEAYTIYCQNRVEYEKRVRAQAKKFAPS

In the case of `CO[C@H]1[C@@H](O)[C@H](C)C[C@H](C)/C=C/C=C/C=C(\C)[C@@H](c2c[nH]c3c(C)cccc23)C[C@@H]2CC[C@@H](C)[C@@](O)(O2)C(=O)C(=O)N2CCCC[C@H]2C(=O)O[C@H]([C@H](C)C[C@@H]2CC[C@@H](O)[C@H](OC)C2)C[C@H](O)[C@H](C)/C=C(\C)[C@H]1O` [AP21967], in the assay on p53-FRB and p53-FKBP (p53-FKBP in combination with Ubc9-FRB and EGFP-SUMO1, AP21967), the “SUMOylation of p53-FKBP” value was “induced SUMOylation”. For the same compound, in the assay with p53-FRB and p53-FKBP (p53-FRB coexpressed with Ubc9-FKBP and EGFP-SUMO1, AP21967 1 μM, western blot α-p53), the “SUMOylation of p53-FRB” value was “strongly enhanced SUMOylation”. For the same compound, the “SUMOylation of STAT1-FKBP” value at STAT1-FRB and STAT1-FKBP (STAT1-FKBP in combination with Ubc9-FRB and EGFP-SUMO1, AP21967) is on record as “induced SUMOylation”. The “SUMOylation of STAT1-FRB” value on STAT1-FRB and STAT1-FKBP (STAT1-FRB coexpressed with Ubc9-FKBP and EGFP-SUMO1, AP21967 1 μM, western blot α-STAT1) is “strongly enhanced SUMOylation”.

As to GST-CDC37: CDC37 fused to GST tag, the Trans-SUMOylation result with CDK4-U and with U-CDC37 was “+” throughout.

As for GST-CRSP9: CRSP9 fused to GST tag, the Trans-SUMOylation entry in the assay with CRSP9-U is given as “−”.
